Assay results reported in article PMC3592886, “Utilization of Quantitative In Vivo Pharmacology Approaches to Assess Combination Effects of Everolimus and Irinotecan in Mouse Xenograft Models of Colorectal Cancer” (PLoS ONE, 2013).
Where two headings read alike, the source gives them in different places. Marks after values point to notes of the source that are not given here.

Columns and labels:
HT29 tumor xenografts = test: Therapeutic study and tumor growth modeling, HT29 tumor xenografts; type: in vivo, mice
Experimental: For tumor bearing studies, cells were harvested and resuspended in a 1∶1 mixture of serum-free RPMI and Matrigel (BD Bioscience). One million cells were injected subcutaneously into each rear flank of mice. Tumor volumes, measured by digital calipers, were calculated by V (mm^3) = length x (width)^2 x 0.5236.
(§1) When HT29 and HCT116 tumors reached an average volume of ∼325 mm^3 animals were randomized into four treatment groups (n = 9–10 mice per group): (i) vehicles, (ii) 5 mg/kg everolimus (RAD) by oral gavage (PO) daily, (iii) 10 mg/kg irinotecan (IRI) once weekly by intravenous (iv) tail vein injection, and (iv) a combination of RAD and IRI. Everolimus, diluted in sterile water, and irinotecan, diluted in sterile 0.9% saline, were administered at 4 mL/kg. Animals were treated for 28 days. Tumor volumes and body weights were measured 2–3 times weekly. On day 28 of treatment 3–6 animals per group were sacrificed, approximately 24 hours following everolimus treatment, and tumors harvested for metabolomic analysis.
Data from the in vivo study was modeled to assess the therapeutic benefit of adding everolimus to irinotecan. The model used was similar to a previously published model for assessing combination therapy. Some modifications were made and details of the model can be found in Supplement S1 (section SA.3.) and Supplement S2. All modeling was performed on individual animal tumor volume data and modeled with SAAM II version 2.1. […]
are presented in Tables 1 and 2 in Supplement B. Individual fits of the model to the data can also be found in Supplement B. The average growth terms for each tumor type were then fixed at the average parameter value and used to determine the single agent effects (kx) of each compound by fitting the following equation: […] where cx(t) is the concentration of drug x with respect to time. Individual tumors were modeled and the average value of kx determined (Supplement B Tables 1 & 2) for each single agent treatment. This value was used to fit the following equation to the combination tumor growth data to determine the degree of interaction between the two drugs.
, the interaction term, was determined for each individual tumor for each tumor type and the data is presented in Table 2 in the main text and individual fits can be found in Supplement B.
We determined that values greater than 1.3 are synergistic, between 1.3 and 0.7 are additive, between 0.7 and 0 are less than additive, and negative values for are antagonistic. These ranges were selected based on the model fits. The CV% for the model fits ranged from 15 to 50 with an average CV% of approximately 30%. Therefore we assume an average variance of 30% making the additive range from 1.3 to 0.7 (1 + 30% and 1- 30%). […]

HCT116 tumors = test: NMR-based metabolomics of HCT116 tumors; type: in vivo, mice; conditions: end of study
Experimental: as §1
For metabolomic analysis, animals were fasted for 4 hours then received 250 mg/kg of [1-^13C] glucose (Cambridge Isotopes, Cambridge, MA) by IV injection 60 minutes prior to tumor harvesting. Snap-frozen tumor specimens underwent two-phase acid extraction procedure (using 8% perchloric acid) previously established and extensively published [19]–[22]. Further details may also be found in Supplement S1 (section SA.2.).

[1] = test system: VEGF and bFGF stimulated endothelial cells (HUVECs); set-up: method as in PMID 19223496; conditions: read-out: IC50, anti-proliferative activity; cited from earlier work
[2] = Pharmacokinetic study of everolimus in mice bearing HT29 tumors (plasma and tumor, LC/MS/MS); type: in vivo; conditions: for Cmax / Tmax / AUC(0-t) / CL/F / Vd/F / half-life: nude; for CL/F: read-out: CLss/F (converted); for Vd/F: read-out: Vz/F; for half-life: read-out: t½ (converted)
Experimental: A pharmacokinetic study of everolimus was conducted in mice bearing HT29 tumors (average volume ∼300 mm^3). Mice were treated with either 2.5 or 10 mg/kg everolimus daily for 7 days by oral gavage. Three mice per dose level were sacrificed by cardiac stick exsanguination at 30 minutes, 2, 4, 6 and 24 hours following drug administration on day 7. Plasma and tumor tissue were snap-frozen in liquid N2 and stored at −70°C until analyzed.
Everolimus was measured in plasma and tumors by LC/MS/MS assay. Analytical standards, quality control (QC) and unknowns were all prepared by adding 200 µl of unknown or spiked blank plasma or tumor homogenate (100 mg/ml in water) samples to a 1.5 ml microcentrifuge tube. Samples were extracted by the addition of 1 ml methyl tert-butyl ether (MTBE) followed by 10 min vortex mixing. Samples were centrifuged at 13,000 RPM for 10 min and the supernatant collected and 900 µl transferred to a clean glass test tube. Samples were evaporated to dryness using a rotary evaporator followed by re-suspension in 100 µl of 50% acetonitrile/50% 10 mM ammonium acetate and transferred to auto-sampler vials for analysis. Mass spectra for extracted samples was obtained on a MDS Sciex 3200 Q-TRAP triple quadrupole mass spectrometer (Applied Biosystems, Inc., Foster City, CA) with a turbo ionspray source interfaced to an Agilent 1200 Series Binary Pump SL HPLC system (Santa Clara, CA).The lower and upper limits of quantitation for the assay were 1 and 5000 nM, respectively. Accuracy and precision (% RSD) based on analysis of standards and QC samples for this assay were 90.7% and 5.5% for plasma and 93.0% and 4.2% for tumor. Additional details may be found in Supplement S1 (section SA.1.).
Plasma and tumor pharmacokinetic parameters were calculated by noncompartmental analysis with WinNonlin. Everolimus plasma data was fit to a two-compartment model with first-order absorption and simulations of plasma concentrations at a 5 mg/kg dose of everolimus were performed by SAAM II version 2.1 (The Epsilon Group, Charlottesville, VA/University of Washington).

HCT116 cells = test: In vitro metabolomics, HCT116 cells; type: cell-based; conditions: 24 and 96 hours exposure to 30nM RAD001
Experimental: Metabolomics was performed in vitro on HCT116
(KRAS mt; PIK3CA mt) and HT29 (BRAF mt;
PIK3CA mt) cells after 0 (control), 24 and 96 hours exposure to 30nM RAD001. In both cell lines after 24 and 96 hours glucose uptake was reduced showing a decrease in proliferation. […]

[3] = 2.5 mg/kg daily oral for 7 days, Mouse, plasma, steady-state
[4] = 10 mg/kg daily oral for 7 days, Mouse, plasma, steady-state
[5] = mouse, po, HT29 tumor, 2.5 mg/kg, mice
[6] = mouse, po, HT29 tumor, 10 mg/kg, mice
[7] = mouse, po, plasma, 2.5 mg/kg, mice, non-compartmental analysis
[8] = mouse, po, plasma, 10 mg/kg, mice, non-compartmental analysis

## CO[C@H]1C[C@@H]2CC[C@@H](C)[C@@](O)(O2)C(=O)C(=O)N2CCCC[C@H]2C(=O)O[C@H]([C@H](C)C[C@@H]2CC[C@@H](OCCO)[C@H](OC)C2)CC(=O)[C@H](C)/C=C(\C)[C@@H](O)[C@@H](OC)C(=O)[C@H](C)C[C@H](C)/C=C/C=C/C=C/1C [Everolimus, 40-O-(2-hydroxyethyl)-rapamycin]
HT29 tumor xenografts; HT29 (BRAF and PIK3CA mutant), RAD
  k2 (SD), single agent effect: 0.000263 (0.00015) mL/ng*day-1
HT29 tumor xenografts; HT29 xenografts, 5 mg/kg everolimus PO daily, 10 mg/kg irinotecan iv once weekly, or combination, 28 days
  average tumor growth inhibition, TGI: 40%
HCT116 tumors
  effects on glucose metabolism: decrease in lactate and glycolysis
[1]
  IC50: 100 to 800 pM
[2]; [3]
  Cmin: 12±6 ^b ng/mL
  Cmax: 350 ± 230 ng/mL
[2]; [4]
  Cmin: 59±5 ^b ng/mL
  Cmax: 1680 ± 277 ng/mL
[2]; 10 mg/kg in mice, 99% plasma protein binding used
  AUCss,free (steady-state free plasma exposure): 116 ng·h/mL
[2]; [5]
  Cmax: 52 nM
  Tmax: 0.5 h
[2]; mouse, po, HT29 tumor, 2.5 mg/kg, mice, read-out: AUC0→24
  AUC(0-t): 0.742 µM·h
[2]; [6]
  Cmax: 250 nM
  Tmax: 4 h
[2]; mouse, po, HT29 tumor, 10 mg/kg, mice, read-out: AUC0→24
  AUC(0-t): 3.93 µM·h
[2]; [7]
  Cmax: 365 nM
  Tmax: 0.5 h
  CL/F: 20 mL/min/kg
  Vd/F: 10.8 L/kg
[2]; mouse, po, plasma, 2.5 mg/kg, mice, non-compartmental analysis, read-out: AUC0→24
  AUC(0-t): 2 µM·h
[2]; [8]
  Cmax: 1760 nM
  Tmax: 0.5 h
  CL/F: 13.8 mL/min/kg
  Vd/F: 6 L/kg
[2]; mouse, po, plasma, 10 mg/kg, mice, non-compartmental analysis, read-out: AUC0→24
  AUC(0-t): 12.1 µM·h
[2]; 2.5 mg/kg daily oral for 7 days, Mouse, plasma, read-out: AUC0→t
  AUC(0-t): 1920 ng·h/mL
[2]; 2.5 mg/kg daily oral for 7 days, Mouse, plasma
  half-life: 6 h
[2]; 10 mg/kg daily oral for 7 days, Mouse, plasma, read-out: AUC0→t
  AUC(0-t): 11600 ng·h/mL
[2]; 10 mg/kg daily oral for 7 days, Mouse, plasma
  half-life: 5 h
HCT116 cells
  glucose uptake: reduced
